Data published in patent publication US12723063B2, “GIPR-agonist compounds” (Eli Lilly and Company, priority 2019, dated 2026).
*1 amine or outer side, *2 acyl side, *3 side chain or, on linkers, in order; H or OH if unused. Where a SMILES comes first, the peptide text is derived from it. Side-chain parts run from the residue outwards. [ ]: non-standard residue; d: D form. The star is where a group is joined. C20 diacid = O=C(O)CCCCCCCCCCCCCCCCCCC(=O)*; C18 diacid = O=C(O)CCCCCCCCCCCCCCCCC(=O)*; γGlu = O=C(O)[C@H](CCC(=O)[*:2])N[*:1]; 4Pal = N[C@@H](Cc1ccncc1)C(=O)O; αMeL = CC(C)C[C@](C)(N)C(=O)O; Orn = NCCC[C@H](N)C(=O)O; AEEA = NCCOCCOCC(=O)O; Aib = CC(C)(N)C(=O)O

Legend:
Assay in all cases: cAMP functional assay (HTRF) in HEK293 cells in presence of 0.1% casein
Type in all cases: cell-based
[1] = target: T1, human glucagon receptor (GcgR) (Homo sapiens, UniProt P47871); settings: HEK293 cells expressing human GcgR, geometric mean, read-out: hGcgR cAMP Rel EC50 nM (SEM, n)
T1 construct: expressed in transfected cells; host or cells: HEK293

[2] = target: T2, human GLP-1 receptor (GLP-1R) (Homo sapiens, UniProt P43220); settings: HEK293 cells expressing human GLP-1R, geometric mean, read-out: hGLP1R cAMP Rel EC50 nM (SEM, n)
T2 construct: expressed in transfected cells; host or cells: HEK293

[3] = target: T3, human glucose-dependent insulinotropic peptide receptor (GIPR) (Homo sapiens, UniProt P48546); settings: HEK293 cells expressing human GIPR, geometric mean, read-out: hGIPR cAMP Rel EC50 nM (SEM, n)
T3 construct: expressed in transfected cells; host or cells: HEK293
T3 sequence (P48546 22-466): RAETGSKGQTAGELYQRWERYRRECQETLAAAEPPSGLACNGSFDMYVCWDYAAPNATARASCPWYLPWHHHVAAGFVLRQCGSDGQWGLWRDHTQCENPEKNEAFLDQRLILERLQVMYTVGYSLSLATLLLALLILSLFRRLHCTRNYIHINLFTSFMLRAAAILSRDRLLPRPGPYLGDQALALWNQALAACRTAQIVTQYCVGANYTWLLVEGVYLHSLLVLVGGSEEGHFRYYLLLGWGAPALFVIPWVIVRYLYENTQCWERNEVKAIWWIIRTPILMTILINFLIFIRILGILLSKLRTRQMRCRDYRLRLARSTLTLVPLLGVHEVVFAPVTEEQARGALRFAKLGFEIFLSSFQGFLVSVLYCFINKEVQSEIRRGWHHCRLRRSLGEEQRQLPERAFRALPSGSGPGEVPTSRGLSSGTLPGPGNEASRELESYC

T1 sequence (P47871 26-477): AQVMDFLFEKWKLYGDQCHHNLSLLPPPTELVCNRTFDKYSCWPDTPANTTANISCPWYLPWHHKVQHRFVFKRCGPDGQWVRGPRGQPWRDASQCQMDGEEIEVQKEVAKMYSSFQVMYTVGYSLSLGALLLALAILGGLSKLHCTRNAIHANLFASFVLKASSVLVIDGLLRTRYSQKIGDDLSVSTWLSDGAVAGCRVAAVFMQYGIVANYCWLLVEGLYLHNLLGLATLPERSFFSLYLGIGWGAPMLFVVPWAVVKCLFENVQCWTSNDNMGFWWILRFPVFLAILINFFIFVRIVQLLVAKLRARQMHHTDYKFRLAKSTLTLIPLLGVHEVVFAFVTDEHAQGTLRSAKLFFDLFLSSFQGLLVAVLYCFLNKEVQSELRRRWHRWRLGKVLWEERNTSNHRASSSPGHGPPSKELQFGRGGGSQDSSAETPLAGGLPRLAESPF
T2 sequence (P43220 24-463): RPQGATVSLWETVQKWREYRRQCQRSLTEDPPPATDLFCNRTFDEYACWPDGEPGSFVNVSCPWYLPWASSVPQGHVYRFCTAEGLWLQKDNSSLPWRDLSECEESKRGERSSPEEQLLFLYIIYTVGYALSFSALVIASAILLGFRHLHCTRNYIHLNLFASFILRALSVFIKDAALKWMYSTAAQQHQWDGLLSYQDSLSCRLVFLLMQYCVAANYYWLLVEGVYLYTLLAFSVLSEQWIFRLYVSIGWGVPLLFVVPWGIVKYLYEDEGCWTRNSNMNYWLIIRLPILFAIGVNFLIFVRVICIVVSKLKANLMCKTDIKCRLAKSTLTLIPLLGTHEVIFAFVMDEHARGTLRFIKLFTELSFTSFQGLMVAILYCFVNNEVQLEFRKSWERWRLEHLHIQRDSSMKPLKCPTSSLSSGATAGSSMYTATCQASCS

| SMILES | EC50 [1] [nM] | EC50 [2] [nM] | EC50 [3] [nM] |
| --- | --- | --- | --- |
| CC[C@H](C)[C@H](NC(=O)[C@H](CC(C)C)NC(=O)[C@@H](NC(=O)CNC(=O)[C@H](CCC(=O)O)NC(=O)C(C)(C)NC(=O)[C@@H](N)Cc1ccc(O)cc1)[C@@H](C)O)C(=O)N[C@@H](CO)C(=O)N[C@@H](CC(=O)O)C(=O)N[C@@H](Cc1ccc(O)cc1)C(=O)N[C@@H](CO)C(=O)N[C@H](C(=O)N[C@@](C)(CC(C)C)C(=O)N[C@@H](CC(C)C)C(=O)N[C@@H](CC(=O)O)C(=O)N[C@@H](CCCCN)C(=O)N[C@@H](CCCCNC(=O)COCCOCCNC(=O)COCCOCCNC(=O)CC[C@H](NC(=O)CCCCCCCCCCCCCCCCCCC(=O)O)C(=O)O)C(=O)N[C@@H](Cc1c[nH]cn1)C(=O)N[C@@H](CCC(N)=O)C(=O)NC(C)(C)C(=O)N[C@@H](CC(=O)O)C(=O)N[C@@H](Cc1ccccc1)C(=O)N[C@H](C(=O)N[C@@H](CCC(=O)O)C(=O)N[C@@H](Cc1ccncc1)C(=O)N[C@@H](CC(C)C)C(=O)N[C@@H](CC(C)C)C(=O)N[C@@H](CCC(=O)O)C(=O)N[C@@H](C)C(=O)NCC(=O)N1CCC[C@H]1C(=O)N[C@@H](CO)C(=O)N[C@@H](CO)C(=O)NCC(=O)N[C@@H](C)C(=O)N1CCC[C@H]1C(=O)N1CCC[C@H]1C(=O)N1CCC[C@H]1C(=O)N[C@@H](CO)C(N)=O)C(C)C)[C@@H](C)CC [Example 89] (H-Y[Aib]EGTLISDYSI[αMeL]LDKK([AEEA-AEEA-γGlu-C20 diacid])HQ[Aib]DFVE[4Pal]LLEAGPSSGAPPPS-NH2) | > 5000 | > 5000 | 0.00687 |
| CC[C@H](C)[C@H](NC(=O)[C@H](CO)NC(=O)[C@H](Cc1ccc(O)cc1)NC(=O)[C@H](CC(=O)O)NC(=O)[C@H](CO)NC(=O)[C@@H](NC(=O)[C@H](Cc1ccccc1)NC(=O)[C@@H](NC(=O)CNC(=O)[C@H](CCC(=O)O)NC(=O)[C@@H](C)NC(=O)[C@@H](N)Cc1ccc(O)cc1)[C@@H](C)O)[C@@H](C)CC)C(=O)N[C@@H](CC(C)C)C(=O)N[C@@H](CC(C)C)C(=O)N[C@@H](CC(=O)O)C(=O)N[C@@H](CCCCN)C(=O)N[C@@H](CCCCNC(=O)COCCOCCNC(=O)COCCOCCNC(=O)CC[C@H](NC(=O)CCCCCCCCCCCCCCCCC(=O)O)C(=O)O)C(=O)N[C@@H](C)C(=O)N[C@@H](CCC(N)=O)C(=O)NC(C)(C)C(=O)N[C@@H](CCC(=O)O)C(=O)N[C@@H](Cc1ccccc1)C(=O)N[C@H](C(=O)N[C@@H](CC(N)=O)C(=O)N[C@@H](Cc1c[nH]c2ccccc12)C(=O)N[C@@H](CC(C)C)C(=O)N[C@@H](CC(C)C)C(=O)N[C@@H](C)C(=O)N[C@@H](CCC(N)=O)C(=O)NCC(=O)N1CCC[C@H]1C(=O)N[C@@H](CO)C(=O)N[C@@H](CO)C(=O)NCC(=O)N[C@@H](C)C(=O)N1CCC[C@H]1C(=O)N1CCC[C@H]1C(=O)N1CCC[C@H]1C(=O)N[C@@H](CO)C(N)=O)C(C)C [Example 20] (H-Y[dA]EGTFISDYSILLDKK([AEEA-AEEA-γGlu-C18 diacid])AQ[Aib]EFVNWLLAQGPSSGAPPPS-NH2) | > 5000 | > 5000 | 0.00933 |
| CC[C@H](C)[C@H](NC(=O)[C@H](CCCN)NC(=O)[C@H](CC(=O)O)NC(=O)[C@H](CC(C)C)NC(=O)[C@](C)(CC(C)C)NC(=O)[C@@H](NC(=O)[C@H](CO)NC(=O)[C@H](Cc1ccc(O)cc1)NC(=O)[C@H](CC(=O)O)NC(=O)[C@H](CO)NC(=O)[C@@H](NC(=O)[C@H](Cc1ccccc1)NC(=O)[C@@H](NC(=O)CNC(=O)[C@H](CCC(=O)O)NC(=O)C(C)(C)NC(=O)[C@@H](N)Cc1ccc(O)cc1)[C@@H](C)O)[C@@H](C)CC)[C@@H](C)CC)C(=O)N[C@@H](Cc1c[nH]cn1)C(=O)N[C@@H](CCC(N)=O)C(=O)NC(C)(C)C(=O)N[C@@H](CC(=O)O)C(=O)N[C@@H](Cc1ccccc1)C(=O)N[C@H](C(=O)N[C@H](CCC(=O)O)C(=O)N[C@@H](Cc1ccc(O)cc1)C(=O)N[C@@H](CCCCNC(=O)COCCOCCNC(=O)COCCOCCNC(=O)CC[C@H](NC(=O)CCCCCCCCCCCCCCCCCCC(=O)O)C(=O)O)C(=O)N[C@@H](CC(C)C)C(=O)N[C@@H](CCC(=O)O)C(=O)NCC(=O)NCC(=O)N1CCC[C@H]1C(=O)N[C@@H](CO)C(=O)N[C@@H](CO)C(=O)NCC(=O)N[C@@H](C)C(=O)N1CCC[C@H]1C(=O)N1CCC[C@H]1C(=O)N1CCC[C@H]1C(=O)N[C@@H](CO)C(N)=O)C(C)C [Example 101] | > 5000 | > 5000 | 0.0396 |
| CC[C@H](C)[C@H](NC(=O)[C@H](CO)NC(=O)[C@H](Cc1ccc(O)cc1)NC(=O)[C@H](CC(=O)O)NC(=O)[C@H](CO)NC(=O)[C@@H](NC(=O)[C@H](Cc1ccccc1)NC(=O)[C@@H](NC(=O)CNC(=O)[C@H](CCC(=O)O)NC(=O)[C@@H](C)NC(=O)[C@@H](N)Cc1ccc(O)cc1)[C@@H](C)O)[C@@H](C)CC)C(=O)N[C@@H](CC(C)C)C(=O)N[C@@H](CC(C)C)C(=O)N[C@@H](CC(=O)O)C(=O)N[C@@H](CCCCN)C(=O)N[C@@H](CCCCNC(=O)COCCOCCNC(=O)COCCOCCNC(=O)CC[C@H](NC(=O)CCCCCCCCCCCCCCCCCCC(=O)O)C(=O)O)C(=O)N[C@@H](Cc1c[nH]cn1)C(=O)N[C@@H](CCC(N)=O)C(=O)N[C@@H](CCC(N)=O)C(=O)N[C@@H](CCC(=O)O)C(=O)N[C@@H](Cc1ccccc1)C(=O)N[C@H](C(=O)N[C@@H](CC(N)=O)C(=O)N[C@@H](Cc1c[nH]c2ccccc12)C(=O)N[C@@H](CC(C)C)C(=O)N[C@@H](CC(C)C)C(=O)N[C@@H](C)C(=O)N[C@@H](CCC(N)=O)C(=O)NCC(=O)N1CCC[C@H]1C(=O)N[C@@H](CO)C(=O)N[C@@H](CO)C(=O)NCC(=O)N[C@@H](C)C(=O)N1CCC[C@H]1C(=O)N1CCC[C@H]1C(=O)N1CCC[C@H]1C(=O)N[C@@H](CO)C(N)=O)C(C)C [Example 13] (H-Y[dA]EGTFISDYSILLDKK([AEEA-AEEA-γGlu-C20 diacid])HQQEFVNWLLAQGPSSGAPPPS-NH2) | > 5000 | > 100 | 0.129 |
| CC[C@H](C)[C@H](NC(=O)[C@H](CCCN)NC(=O)[C@H](CC(=O)O)NC(=O)[C@H](CC(C)C)NC(=O)[C@](C)(CC(C)C)NC(=O)[C@@H](NC(=O)[C@H](CO)NC(=O)[C@H](Cc1ccc(O)cc1)NC(=O)[C@H](CC(=O)O)NC(=O)[C@H](CO)NC(=O)[C@@H](NC(=O)[C@H](Cc1ccccc1)NC(=O)[C@@H](NC(=O)CNC(=O)[C@H](CCC(=O)O)NC(=O)C(C)(C)NC(=O)[C@@H](N)Cc1ccc(O)cc1)[C@@H](C)O)[C@@H](C)CC)[C@@H](C)CC)C(=O)N[C@@H](Cc1c[nH]cn1)C(=O)N[C@@H](CCC(N)=O)C(=O)NC(C)(C)C(=O)N[C@@H](CC(=O)O)C(=O)N[C@@H](Cc1ccccc1)C(=O)N[C@H](C(=O)N[C@@H](CCC(=O)O)C(=O)N[C@@H](Cc1ccncc1)C(=O)N[C@@H](CCCCNC(=O)COCCOCCNC(=O)COCCOCCNC(=O)CC[C@H](NC(=O)CCCCCCCCCCCCCCCCCCC(=O)O)C(=O)O)C(=O)N[C@@H](CC(C)C)C(=O)N[C@@H](CCC(=O)O)C(=O)NCC(=O)NCC(=O)N1CCC[C@H]1C(=O)N[C@@H](CO)C(=O)N[C@@H](CO)C(=O)NCC(=O)N[C@@H](C)C(=O)N1CCC[C@H]1C(=O)N1CCC[C@H]1C(=O)N1CCC[C@H]1C(=O)N[C@@H](CO)C(N)=O)C(C)C [Example 108] (H-Y[Aib]EGTFISDYSI[αMeL]LD[Orn]IHQ[Aib]DFVE[4Pal]K([AEEA-AEEA-γGlu-C20 diacid])LEGGPSSGAPPPS-NH2) | > 5000 | > 5000 | 0.0088 |
| CC[C@H](C)[C@H](NC(=O)[C@H](CO)NC(=O)[C@H](Cc1ccc(O)cc1)NC(=O)[C@H](CC(=O)O)NC(=O)[C@H](CO)NC(=O)[C@@H](NC(=O)[C@H](Cc1ccccc1)NC(=O)[C@@H](NC(=O)CNC(=O)[C@H](CCC(=O)O)NC(=O)[C@@H](C)NC(=O)[C@@H](N)Cc1ccc(O)cc1)[C@@H](C)O)[C@@H](C)CC)C(=O)N[C@@H](CC(C)C)C(=O)N[C@@H](CC(C)C)C(=O)N[C@@H](CC(=O)O)C(=O)N[C@@H](CCCCN)C(=O)N[C@@H](CCCCNC(=O)COCCOCCNC(=O)COCCOCCNC(=O)CC[C@H](NC(=O)CCCCCCCCCCCCCCCCCCC(=O)O)C(=O)O)C(=O)N[C@@H](Cc1c[nH]cn1)C(=O)N[C@@H](CCC(N)=O)C(=O)N[C@@H](CCC(N)=O)C(=O)N[C@@H](CC(=O)O)C(=O)N[C@@H](Cc1ccccc1)C(=O)N[C@H](C(=O)N[C@@H](CC(N)=O)C(=O)N[C@@H](Cc1ccc(O)cc1)C(=O)N[C@@H](CC(C)C)C(=O)N[C@@H](CC(C)C)C(=O)N[C@@H](C)C(=O)N[C@@H](CCC(N)=O)C(=O)NCC(=O)N1CCC[C@H]1C(=O)N[C@@H](CO)C(=O)N[C@@H](CO)C(=O)NCC(=O)N[C@@H](C)C(=O)N1CCC[C@H]1C(=O)N1CCC[C@H]1C(=O)N1CCC[C@H]1C(=O)N[C@@H](CO)C(N)=O)C(C)C [Example 15] (H-Y[dA]EGTFISDYSILLDKK([AEEA-AEEA-γGlu-C20 diacid])HQQDFVNYLLAQGPSSGAPPPS-NH2) | > 5000 | > 100 | 0.282 |
